From patent US8841325B2, “Immunomodulatory compounds for the restoration of vitamin D sensitivity in vitamin D resistant tumor cells” (Celgene Corporation, priority 2009, dated 2014) come the findings set out here.

Common to all, as to assay type: cell-based
In one data set the test system is MCF-7 cells. The data set can be described thus: Cell viability by neutral red assay, MCF-7. How it is done: Cells were seeded in 24 wells plates at a density of 10^4 cells per well and allowed to adhere for 24 hours. […] The drug was renewed every 2 days. Cell viability was then determined by neutral red assay, measuring absorbance at 550 nm.
After 6 days treatment, cells were seeded into 24 well plates at a density of 1×10^4 cells/wells. After 24 h, cells were treated with reagents or vehicle for up to six days. At the end of the incubation period, medium was removed and cells were incubated with neutral red solution (40 μg/ml in phenol red and serum free DMEM) for 2 h at 37° C. After removal of the neutral red solution, wells were rinsed once with 1 ml 4% formal saline containing 0.5% CaCl2. Plates were inverted on paper towel to drain and 200 μl of elution fluid (1% acetic acid in 50% ethanol) was added. Following incubation at room temperature for 30 min with gentle shaking, absorbance at 550 nm was determined

For data set [1], the system named is MDA-MB-231 cells. Description: Apoptosis protein array and Western blot (p53, p21, p27, claspin, BCL-2). Conditions: for expression of the anti-apoptotic protein Bcl-2: 1 μM lenalidomide or 100 nM 1,25-D3 alone. How it is done:
Cells were lysed in RIPA buffer containing 1% NP40, 0.5% sodium deoxycholate, 0.1% SDS and PBS and lysates containing 300 μg protein were probed with an R and D apoptosis protein array kit according to the manufacturers instructions (R&D catalogue number ARY009). Spots were visualised using the enhanced chemiluminescence Western blotting detection system (ECL, Amersham, N.J., USA). Densitometric analysis was performed using Adobe Photoshop CS2.
To determine the pathways and proteins involved in the increased apoptosis seen with the lenalidomide/1, 25-D3 combination treatment, whole proteins were extracted from cells taken from the different treatments and were used for probing with an apoptosis protein array, according to the manufacturer. FIG. 9 illustrates the effects. […] Cells were also treated with 0.1% DMSO as a control. Cells were lysed with RIPA buffer as described in the materials and methods, and 300 μg of protein from each of the samples was used for probing with the R& D apoptosis array according to the manufacturers instructions. Results are representative of 2 separate arrays performed. The protein array gives a semi quantitative analysis of changes in the key apoptosis and checkpoint pathway proteins. […] All these proteins are well known to be major pro-apoptotic or checkpoint regulatory proteins. […] All theses results were confirmed by Western blot (FIG. 10 (a)) and densitometry plots of the array and western blot bands/dots were carried out to quantitate the changed expression of these proteins (FIG. 10 (b)). Therefore, the increase in pro-apoptotic proteins coupled with a decrease in Bcl-2 may be responsible for the increased apoptosis seen with the combination treatment.
More particularly, FIG. 10 illustrates the effects of co-treatment lenalidomide/1, 25-D3 on p53 activation and p21, p27, claspin, and BCL-2 protein expression in MDA-MB-231 cells. […] Cells were also treated with 0.1% DMSO as a control. Whole proteins were extracted and probed for p53 (serine 15 and serine 392), p21, p27, claspin, and BCL-2, with b-actin as a house-keeping protein.
On the technique in general: In western blotting, separated proteins are transferred to a membrane and probed.

In data set [2] the test system is MDA-MB-231 cells. The data set can be described thus: PARP cleavage assay (Western blot). How it is done: Cells were plated in 75 cm^2 flasks and cultured for 6 days with 1 μl/mL DMSO (control) or 1 μM 1-oxo-2-(2,6-dioxopiperidin-3-yl)-4-aminoisoindoline and 100 nM 1,25 D3, each alone or in combination. For each time point, medium was removed and cells were washed with ice-cold PBS. Cells were then lysed with RIPA buffer (1% NP40, 0.5% sodium deoxycholate, 0.1% SDS, PBS) and the lysate was centrifuged at 13000 rpm for 20 minutes at 4° C. The supernatant was collected and an aliquot taken for measuring protein concentration. The protein estimation was determined for each lysate using the Bio-Rad DC Protein Assay Kit according to the manufacturer's instructions. The protein extract was mixed with SDS (1/4), sonicated 10 seconds, and protein concentration was determined by Bradford assay.
SDS-polyacrylamide gel electrophoresis (SDS-PAGE) was run on a Mini Trans-Blot Module apparatus (Bio-Rad). The percentage of polyacrylamide/bis-acrylamide in the resolving gel in this experiment was 12% v/v. The following reagents were used for stacking gel: 0.67 mL 30% acrylamide/bis-acrylamide; 2.7 mL H2O; 0.5 mL 1M trizma; 0.01 mL 10% ammonium persulfate; and 0.04 mL SDS. The following reagents were used for resolving gel: 3.3 mL 30% acrylamide/bis-acrylamide; 4 mL H2O; 2.5 mL 1M trizma; 0.1 mL 10% ammonium persulfate; and 0.1 mL 10% SDS.
Once the resolving gel was prepared, polymerization was initiated by addition of 10 μl N′,N′,N′,N′-teramethylethylene-diamine (TEMED). Lysates were boiled for 5 minutes and chilled on ice then loaded into the stacking gel, with volumes adjusted so that equal amounts of protein were loaded. Rainbow colored markers (Sigma Aldrich) were also added in one well to monitor the electrophoretic solution. Electrophoresis was performed at 40 mA constant current for 1 to 2 hours in running buffer (10×25 mM trizma, 192 mM glycine, 0.1% SDS).
For western blotting, the proteins were transferred from the gel onto Hybond C-Super nitrocellulose membrane (Amersham International, U.K.) in a Mini Trans-Blot apparatus (Bio-Rad) according to the manufacturer's instructions. Transfer was performed at 100 V for 1.5 to 2 hours in transfer buffer (25 mM Tris base, 192 mM glycine, 20% methanol, pH 8.2). The nitrocellulose was blocked after 1 hour with milk solution (PBS 1×, 1% Tween 20, 1% Triton X100, 5% fat-free milk). The membrane was then stained for 1 hour with the primary antibodies Total-PARP and Cleaved-PARP in the milk solution. The membrane was washed with milk solution and stained with secondary antibody (anti-rabbit from Sigma Aldrich) for 1 hour. […] The membrane was then wrapper in cling-film and placed in a cassette and, in the dark, pieces of autography film (GRI) were placed over it and left for the desired time before being put through a developer.
Cells were lysed in RIPA buffer containing 1% NP40, 0.5% sodium deoxycholate, 0.1% SDS, PBS. Equal amounts of protein (20 μg per lane) were subjected to SDS-PAGE and transferred to nitrocellulose membranes. Membranes were blocked with 5% milk in 0.05% Tween-20/TBS and then incubated with the first antibody in 0.5% milk overnight. Membranes were then incubated with the secondary anti-mouse or anti-rabbit horseradish peroxidase conjugated antibody. Bands were visualised using the enhanced chemiluminescence Western blotting detection system (ECL, Amersham, N.J., USA). Densitometric analysis was performed using Adobe Photoshop CS2. Anti-cleaved PARP and anti-total PARP antibodies (New England biolab, Cell Signalling), were used at a dilution of 1/1000 and anti-rabbit (AbCam, UK), at a dilution of 1/5000.
Cells were also treated with 0.1% DMSO as a control. […] Cells treated with 0.1% DMSO were used as a control (day 0). Cell lysates were probed for cleaved-PARP(C-PARP) and total PARP (T-PARP). Data shown are representative of three identical experiments.

Setting [3] is: single agent: 1 μM lenalidomide or 100 nM 1,25 D3 alone, up to 6 days.
[4] abbreviates: 1 μM lenalidomide co-treatment with 100 nM 1,25-D3, up to 6 days.

Each structure is given as a SMILES string. “Also recorded” adds a separate entry of the source.

As for `C=C1/C(=C\C=C2/CCC[C@]3(C)[C@@H]([C@H](C)CCCC(C)(C)O)CC[C@@H]23)C[C@@H](O)C[C@@H]1O` [1,25-D3, 1α,25-dihydroxyvitamin D3], in the data set with MCF-7 cells (100 nM 1,25-D3 alone, up to 6 days, FIG. 7A), the inhibition of viability is listed as 40%. Also, in the data set with MCF-7 cells (1,25 D3 0-100 nM, 7 days, FIG. 1), the “sensitivity of cell viability to vitamin D agent treatment” value was “showed sensitivity”. Besides, the “expression of the anti-apoptotic protein Bcl-2” value in the data set on MDA-MB-231 cells [1] (up to 6 days) is recorded as “does not affect”. Further, the PARP cleavage result is on record as “no effect” in the data set with MDA-MB-231 cells [2] (setting [3]) and “no PARP cleavage” with MDA-MB-231 cells [2] (single agent: 1 μM lenalidomide or 100 nM 1,25 D3 alone, up to 6 days, listed as vitamin D).
With `Nc1cccc2c1CN(C1CCC(=O)NC1=O)C2=O` (stereo not drawn) [Lenalidomide, 1-oxo-2-(2,6-dioxopiperidin-3-yl)-4-aminoisoindoline], in the data set on MCF-7 cells (single agent, up to 6 days, Thalidomide 0.01-100 μM, CC-4047 and lenalidomide 0.001-10 μM, FIG. 6A), the “effect on cell viability” value was “do not Affect”. The BCL-2 expression result in the data set on MDA-MB-231 cells [1] (setting [4]) is “inhibits BCL-2 expression; also recorded: abolished by the combination”. Further, the “p21, p27 and claspin expression” value in the data set on MDA-MB-231 cells [1] (setting [4]) is on record as “induces activation”. The “p53 activation (phosphorylation of serine 15 and serine 392)” value in the data set with MDA-MB-231 cells [1] (setting [4]) was “induces p53 activation”; with MDA-MB-231 cells [1] (1 μM lenalidomide only, up to 6 days) it was “induces p53 activation”. Besides, the “expression of the anti-apoptotic protein Bcl-2” value in the data set on MDA-MB-231 cells [1] (up to 6 days) is listed as “does not affect”. In the data set with MDA-MB-231 cells [1] (combination of lenalidomide and 1,25D3 versus either agent alone), the proapoptotic protein claspin result is reported as “upregulated by the combination, but not with either agent alone”. Besides, the “proapoptotic proteins P21, P27 and P53S392” value in the data set on MDA-MB-231 cells [1] (lenalidomide in combination with vitamin D) and with MDA-MB-231 cells [1] (lenalidomide on its own) was “upregulated” each time. Moreover, the PARP cleavage entry in the data set on MDA-MB-231 cells [2] (1 μM lenalidomide in combination with 100 nM 1,25 D3, up to 6 days) is listed as “starts to be cleaved after 2 days of treatment”; with MDA-MB-231 cells [2] (1 μM lenalidomide in combination with 100 nM 1,25 D3, up to 6 days, listed as 1-oxo-2-(2,6-dioxopiperidin-3-yl)-4-aminoisoindoline), “significant level of cleaved PARP”; with MDA-MB-231 cells [2] (setting [3]) it was “no effect”; in the data set on MDA-MB-231 cells [2] (single agent: 1 μM lenalidomide or 100 nM 1,25 D3 alone, up to 6 days, listed as 1-oxo-2-(2,6-dioxopiperidin-3-yl)-4-aminoisoindoline), “no PARP cleavage”.
